Measured values: patent publication US7071197B2, “N,N-disubstituted diazocycloalkanes” (Recordati S.A., priority 2002, dated 2006)

Key:
human α1b-adrenoceptor = molecular target: T1, human α1b-adrenoceptor (Homo sapiens, UniProt P35368); test: [3H]prazosin binding to cloned human α1-adrenoceptor subtypes (α1b); conditions: for Ki: [3H]prazosin, CHO cell membranes, read-out: Binding affinity (Ki, nM) α1b; for α1b/5-HT1A: selectivity: ratio of Ki at α1b and Ki at 5-HT1A
T1 construct: expressed in transfected cells
T1 sequence (P35368 1-520): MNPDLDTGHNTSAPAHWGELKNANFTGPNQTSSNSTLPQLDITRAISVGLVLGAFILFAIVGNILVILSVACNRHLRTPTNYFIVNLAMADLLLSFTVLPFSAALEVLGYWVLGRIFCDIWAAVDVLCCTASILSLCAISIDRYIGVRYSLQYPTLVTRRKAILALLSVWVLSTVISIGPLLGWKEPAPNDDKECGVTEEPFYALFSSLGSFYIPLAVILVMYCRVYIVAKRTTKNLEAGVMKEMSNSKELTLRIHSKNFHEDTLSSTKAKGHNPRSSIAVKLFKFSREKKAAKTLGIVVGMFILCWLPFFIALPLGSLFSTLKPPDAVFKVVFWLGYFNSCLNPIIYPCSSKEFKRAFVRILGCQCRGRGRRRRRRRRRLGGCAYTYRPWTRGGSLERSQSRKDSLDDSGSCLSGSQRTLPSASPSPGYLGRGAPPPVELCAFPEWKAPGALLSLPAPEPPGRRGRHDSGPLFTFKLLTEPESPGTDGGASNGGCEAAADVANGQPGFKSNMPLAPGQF
Experimental: Binding to cloned human α1-adrenoceptor subtypes was performed in membranes from CHO cells (chinese hamster ovary cells) transfected by electroporation with DNA expressing the gene encoding each α1-adrenoceptor subtype. Cloning and stable expression of the human α1-adrenoceptor gene was performed as previously described (Testa et al. Pharmacol. Comm., 6: 79–86,1995).
CHO cells were grown in suspension in Iscove's modified Dulbecco's medium, supplemented with 10% fetal calf serum and gentamicin (50 μg/ml), at 37° C. in 7% CO2 in an humidified incubator. Cells were collected by centrifugation, lised in ice-cold Tris 5 mM and EDTA 5 mM buffer (pH 7.4) and gently homogenised. Homogenates were centrifuged at 40000×g×20 min and pellets were resuspended in a small volume of ice-cold Tris 5 mM and EDTA 5 mM buffer (pH 7.4) and immediately frozen and stored at −80° C. until use.
CHO cell membranes were resuspended and incubated in 50 mM Tris, pH 7.4, with 0.2 nM [^3H]prazosin, in a final volume of 1.02 ml for 30 min at 25° C., in absence or presence of competing drugs. Non-specific binding was determined in the presence of 10 μM phentolamine. The incubation was stopped by rapid filtration through 0.2% polyethyleneimine pretreated Schleicher & Schuell GF52 filters using a Tomtec (PerkinElmer) cell harvester. The filters were washed with 3×1 ml of ice-cold Tris buffer, dried and the radioactivity was measured in a Betaplate (Wallac) liquid scintillation counter.
The inhibition of specific binding by the compounds was analysed to estimate the IC50 value by the non-linear curve-fitting program Allfit (De Lean et al. Am. J. Physiol. 235, E97-E102, 1978). The IC50 value is converted to an affinity constant (Ki) by the equation of Cheng & Prusoff (Biochem. Pharmacol. 22: 3099–3108, 1973).

[1] = tested on: rhythmic bladder-voiding contractions in anaesthetised rats; test: Rhythmic bladder-voiding contractions induced by bladder filling in anaesthetised rats; format: in vivo, rat; conditions: for ED50: Rattus norvegicus, read-out: ED50 (frequency) (extrapolated dose inducing a reduction of the number of contractions > 30% in 50% of treated rats); for ED50 / ED10 min (extrapolated dose inducing 10 minutes of disappearance of the contractions): intravenous administration, anaesthetised rats; for time of disappearance of bladder contractions: after administration of 0.3 mg/kg
Experimental: Female Sprague-Dawley rats weighing 225–275 g (Crl: CD® (SD) IGS BR, Charles River Italia) were used. The animals were housed with free access to food and water and maintained on a forced 12-hour alternating light-dark cycle at 22–24° C. for at least one week, except during the experiment. The activity on rhythmic bladder voiding contractions was evaluated according to the method of Dray (Dray J., Pharmacol. Methods, 13:157, 1985), with some modifications as in Guarneri (Guarneri, Pharmacol. Res. 27:173, 1993). Briefly, the rats were anaesthetised by subcutaneous injection of 1.25 g/kg (5 ml/kg) urethane, after which the urinary bladder was catheterised via the urethra using PE 50 polyethylene tubing filled with physiological saline. The catheter was tied in place with a ligature around the external urethral orifice and was connected to conventional pressure transducers (Statham P23 ID/P23 XL). […] The bladder was then filled via the recording catheter by incremental volumes of warm (37° C.) saline until reflex bladder-voiding contractions occurred (usually 0.81.5 ml). For intravenous injection of bioactive compounds, PE 50 polyethylene tubing filled with physiological saline was inserted into the jugular vein.
From the cystometrogram, the number of contractions recorded 15 minutes before (basal values) and after treatment, as well as the mean amplitude of these contractions (mean height of the peaks in mmHg), was evaluated.
Since most compounds produced an effect that was relatively rapid in onset and led to a complete cessation of bladder contractions, bioactivity was conveniently estimated by measuring the duration of bladder quiescence (i.e., the length of the time during which no contractions occurred). The number of tested animals showing a reduction in the number of contractions higher than 30% of that observed in the basal period was recorded too.
The extrapolated doses which induced a reduction in the number of contractions greater than 30% in 50% of the treated rats (ED50) were evaluated by the method of Bliss (Bliss C. I., Quart J. Pharm. Pharmacol. 11, 192–216, 1938).

| Ki (human α1b-adrenoceptor) [nM] | α1b/5-HT1A (human α1b-adrenoceptor) | Structure (SMILES) | ED50 [1] [mg/kg] | ED10 min (extrapolated dose inducing 10 minutes of disappearance of the contractions) [1] [mg/kg] | time of disappearance of bladder contractions [1] [min] | extrapolated dose inducing 10 minutes of disappearance of the contractions, fold lower than Ex. 5 ([1]; compared with Ex. 5) |
| --- | --- | --- | --- | --- | --- | --- |
| 5.9 | 45 | COc1ccccc1N1CCN(CC[C@@H](c2ccccc2F)[C@H](O)C2CCCCC2)CC1 (racemic) [Ex. 1, 1-[(SR-RS)-4-cyclohexyl-4-hydroxy-3-(2-fluorophenyl)-butyl]-4-(2-methoxyphenyl)-piperazine] | 0.03 | 0.198 |  |  |
| 12 | 18 | COc1ccccc1N1CCN(CC[C@H](c2ccccc2)[C@@H](O)C2CCCCC2)CC1 (racemic) [Ex. 5, 1-[(RS,SR)-4-Cyclohexyl-4-hydroxy-3-phenyl-butyl]-4-(2-methoxyphenyl)-piperazine, reference compound] | 0.018 | 0.066 | 14 |  |
| 11 | 30 | COc1ccccc1N1CCN(CC[C@H](c2ccccc2F)[C@@H](O)C2CCCCC2)CC1 [Ex. 1Y, 1-[(3R,4S)-4-cyclohexyl-4-hydroxy-3-(2-fluorophenyl)-butyl]-4-(2-methoxyphenyl)-piperazine] | 0.015 | 0.023 | 24 | at least 2 fold |
| 11 | 46 | COc1ccccc1N1CCN(CC[C@H](c2ccccc2F)[C@H](O)C2CCCCC2)CC1 [Ex. 2X, 1-[(3R,4R)-4-cyclohexyl-4-hydroxy-3-(2-fluorophenyl)-butyl]-4-(2-methoxyphenyl)-piperazine] |  |  |  |  |
